Converted amounts (≈) assume the structure as drawn. Some results are limits rather than exact numbers.

Assay [1] is described as follows: ABTS cation radical scavenging assay. The settings on record: mean ± SD (n = 3). In kind it is biochemical. How it is done:
The ABTS cation radical scavenging assay was carried out using the reference method.

The nature of assay [2]: Hydroxyl radical scavenging assay. Type of assay: biochemical. The following applies: mean ± SD (n = 3). How it is done:
The samples were evaluated for hydroxyl radical scavenging activity based on the previously described method.

A short description of assay [3]: DPPH radical scavenging assay. In kind it is biochemical. The settings on record: mean ± SD (n = 3). As for the experimental part:
The DPPH radical scavenging assay was determined by the reference method.

The target of the next assay is α-glucosidase (Saccharomyces cerevisiae, UniProt P53341). Description: biochemical. How it is done:
α-Glucosidase inhibitory activity was established in accordance with the described method with slight modifications. In brief, 100 μL of different concentrations of the sample, 380 μL of p-nitro-phenyl-α-D-glucopyranoside (p-NPG) (0.53 mM), and 20 μL of α-Glucosidase solution (1 units/mL) were mixed in 0.1 M potassium phosphate buffer (pH 6.8). After incubating at 37 °C for 20 min, 500 μL of sodium carbonate (0.1 M) was added in order to quench the reaction. The anti-α-glucosidase activity of the sample was determined by calculating the decrease in absorbance measured at 405 nm by the following equation,
Inhibition (%) = (A0 − A1)/A0 × 100, where A1 is the absorbance of the test sample and A0 is the absorbance of the control.

Assay [4] can be described thus: Superoxide anion radical scavenging assay (PMS-NADH-NBT). The settings on record: isolated components (Table 5); mean ± SD (n = 3). Type of assay: biochemical. How it is done:
Superoxide anion radical (O2^•−) scavenging activity was described earlier with slight changes. […] The reaction was initiated by adding 50 μL of NADH (468 μM) solution to the mixture. After incubating at room temperature for 5 min, the activity of samples was determined by calculating the decrease in absorbance measured at 560 nm by the following equation,
Superoxide anion radical scavenging activity (%) = (A0 − A1)/A0 × 100, where A1 is the absorbance of the test sample and A0 is the absorbance of the control.
IC50 values for the tested activities were determined by linear regression of the percentage of remaining superoxide anion radicals against sample concentration.

α-glucosidase, sequence (P53341 whole entry): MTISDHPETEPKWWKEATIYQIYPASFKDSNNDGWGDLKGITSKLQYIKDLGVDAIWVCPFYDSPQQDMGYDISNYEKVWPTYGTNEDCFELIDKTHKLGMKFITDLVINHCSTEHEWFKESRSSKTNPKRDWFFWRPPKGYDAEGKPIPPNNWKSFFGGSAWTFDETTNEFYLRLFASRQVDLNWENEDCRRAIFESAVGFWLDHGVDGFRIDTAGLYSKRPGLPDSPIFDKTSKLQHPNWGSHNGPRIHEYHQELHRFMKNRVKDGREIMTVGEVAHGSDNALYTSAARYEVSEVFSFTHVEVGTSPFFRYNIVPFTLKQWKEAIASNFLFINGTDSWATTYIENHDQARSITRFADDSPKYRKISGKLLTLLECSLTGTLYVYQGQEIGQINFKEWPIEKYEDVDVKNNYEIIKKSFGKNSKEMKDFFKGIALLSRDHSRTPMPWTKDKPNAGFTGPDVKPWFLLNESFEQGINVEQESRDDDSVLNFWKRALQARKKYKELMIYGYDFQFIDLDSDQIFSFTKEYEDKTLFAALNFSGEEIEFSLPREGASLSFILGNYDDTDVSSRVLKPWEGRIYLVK

For the compound `Cc1cc(C(C)(C)C)c(O)c(C(C)(C)C)c1` [BHT, Butylated hydroxytoluene, reference compound], the entries for the “IC50 ABTS” value in assay [1] (isolated components (Table 5)) and in assay [1] (solvent extracts (Table 2)) were 19.34 ± 2.18 µg/mL (≈ 87.8 µM) and 20.34 ± 1.69 µg/mL (≈ 92.3 µM), respectively. In addition, the figures for the “IC50 Hydroxyl” value in assay [2] (isolated components (Table 5)) and in assay [2] (solvent extracts (Table 2)) were 58.62 ± 2.75 µg/mL (≈ 266 µM) and 65.90 ± 1.23 µg/mL (≈ 299 µM), respectively. The “IC50 DPPH” value in assay [3] (isolated components (Table 5)) was determined as 31.04 ± 2.12 µg/mL (≈ 141 µM); in assay [3] (solvent extracts (Table 2)) it was 39.88 ± 1.30 µg/mL (≈ 181 µM).

On to `O=C(O)/C=C/c1ccc(O)c(O)c1` [Caffeic acid, caffeic acid], for which, in assay [1] (isolated components (Table 5)), the “IC50 ABTS” value is 27.85 ± 18.95 µg/mL (≈ 155 µM). Further, in assay [2] (isolated components (Table 5)), the “IC50 Hydroxyl” value was 153.04 ± 85.84 µg/mL (≈ 849 µM). This compound also showed a half-inhibitory concentration (IC50) against α-glucosidase of 942 µM. Besides, the “IC50 Superoxide” value in assay [4] turned out to be 57.34 ± 7.44 µg/mL (≈ 318 µM). In assay [3] (isolated components (Table 5)), the “IC50 DPPH” value was 0.81 ± 0.09 µg/mL (≈ 4.5 µM).

Consider `O=c1c(O)c(-c2ccc(O)cc2)oc2cc(O)cc(O)c12` [Kaempferol, kaempferol], for which, in assay [1] (isolated components (Table 5)), the “IC50 ABTS” value worked out at 8.75 ± 0.90 µg/mL (≈ 30.6 µM). For the same compound, the “IC50 Hydroxyl” value in assay [2] (isolated components (Table 5)) is 11.46 ± 5.60 µg/mL (≈ 40 µM). Also, the “IC50 Superoxide” value in assay [4] is 541.00 ± 18.47 µg/mL (≈ 1890 µM). For the same compound, the “IC50 DPPH” value in assay [3] (isolated components (Table 5)) was found to be 2.32 ± 0.17 µg/mL (≈ 8.11 µM).

Regarding `O=c1c(O)c(-c2ccc(O)c(O)c2)oc2cc(O)cc(O)c12` [Quercetin, quercetin], in assay [1] (isolated components (Table 5)), the “IC50 ABTS” value turned out to be 11.46 ± 1.82 µg/mL (≈ 37.9 µM). The “IC50 Hydroxyl” value in assay [2] (isolated components (Table 5)) turned out to be 9.75 ± 4.39 µg/mL (≈ 32.3 µM). The “IC50 Superoxide” value in assay [4] was determined as 44.08 ± 3.07 µg/mL (≈ 146 µM). For the same compound, the “IC50 DPPH” value in assay [3] (isolated components (Table 5)) is 1.07 ± 0.13 µg/mL (≈ 3.54 µM).

Consider `O=C(/C=C/c1ccc(O)c(O)c1)O[C@H](Cc1ccc(O)c(O)c1)C(=O)O` [Rosmarinic acid, rosmarinic acid], for which, in assay [1] (isolated components (Table 5)), the “IC50 ABTS” value turned out to be 27.11 ± 14.00 µg/mL (≈ 75.2 µM). The “IC50 Hydroxyl” value in assay [2] (isolated components (Table 5)) is 6.56 ± 4.77 µg/mL (≈ 18.2 µM). The same compound showed an IC50 at α-glucosidase of 514 µM. In assay [4], the “IC50 Superoxide” value was found to be 61.62 ± 6.43 µg/mL (≈ 171 µM). In assay [3] (isolated components (Table 5)), the “IC50 DPPH” value was found to be 1.87 ± 0.09 µg/mL (≈ 5.19 µM).

As to `O=C(O)/C=C/c1ccc(O)cc1` [p-Coumaric acid, p-coumaric acid], the “IC50 ABTS” value in assay [1] (isolated components (Table 5)) is 27.01 ± 6.12 µg/mL (≈ 165 µM). Besides, the “IC50 Hydroxyl” value in assay [2] (isolated components (Table 5)) worked out at 60.70 ± 69.24 µg/mL (≈ 370 µM). Besides, at α-glucosidase, the IC50 was above 2440 µM. The “IC50 Superoxide” value in assay [4] came to 256.00 ± 16.27 µg/mL (≈ 1560 µM). In addition, in assay [3] (isolated components (Table 5)), the “IC50 DPPH” value came to 204.13 ± 9.78 µg/mL (≈ 1240 µM).

As for `COc1cc(/C=C/C(=O)O)ccc1O` [trans-Ferulic acid, trans-ferulic acid], the “IC50 ABTS” value in assay [1] (isolated components (Table 5)) came to 24.47 ± 16.45 µg/mL (≈ 126 µM). Moreover, the “IC50 Hydroxyl” value in assay [2] (isolated components (Table 5)) stood at 68.26 ± 65.58 µg/mL (≈ 352 µM). For the same compound, the IC50 against α-glucosidase was above 2060 µM. Moreover, the “IC50 Superoxide” value in assay [4] is 541.00 ± 26.95 µg/mL (≈ 2790 µM). Besides, the “IC50 DPPH” value in assay [3] (isolated components (Table 5)) came to 3.81 ± 0.18 µg/mL (≈ 19.6 µM).

The values are drawn from PMC8869629, “Comparison of Various Solvent Extracts and Major Bioactive Components from Portulaca oleracea for Antioxidant, Anti-Tyrosinase, and Anti-α-Glucosidase Activities” (Antioxidants, 2022).
